Tested on: swelling of rat toes induced by egg-white
Test: Swelling of rat toes induced by egg-white injection
Format: in vivo, rats
Details: 0.3 g ointment per toe, repeated after 0.5 hour
Experimental: 50 SD rats, 150 g±10 g, were divided randomly into five groups. The volume of the toes at the same side of rats among the 5 groups was measured. 10% of egg white was injected into the toes, 0.2 ml each toe. After that, rats of two groups were anointed respectively with 0.15 g and 0.3 g of an ointment of total coumarins (containing 10% total coumarins) at each toe. Rats of other two groups were respectively anointed with 0.3 g of a blank ointment and 0.3 g of an ointment of anthralin at each toe. The rest one group was treated nothing as a control. 0.5 hour later, the above treatment was repeated. At 1st, 2nd, 4th, and 6th hour the volume of the toes were measured. The difference of the volume was regarded as the degree of the swelling of the toes.

With `O=C1c2c(O)cccc2Cc2cccc(O)c21` [Anthralin, anthralin] the “Degree of toe swelling (volume increase)” value (1 h) was 0.408 ± 0.201 mL, the “Degree of toe swelling (volume increase)” value (2 h) was 0.391 ± 0.209 mL and the “Degree of toe swelling (volume increase)” value (4 h) was 0.375 ± 0.189 mL. The “Degree of toe swelling (volume increase)” value (6 h) was 0.351 ± 0.165 mL.

— patent US8518460B2, “Use of total coumarins of cnidium fruit in preparing medicaments for treating psoriasis” (priority 2002, dated 2013)
